Source: the supplement of paper PMC10307832

How the values were obtained:
Assay in all cases: relative viability (nuclei count vs DMSO), 5 days (fraction); higher = more cells survive
[1] = compound: CCN1C(=O)C2=CC(=C(N=C2N(C1=O)C3CC3)N)C(=O)N + CCNC(=O)c1noc(-c2cc(C(C)C)c(O)cc2O)c1-c1ccc(CN2CCOCC2)cc1 [Luminespib] (partner 0.01 µM)
Summary of the method: (§1)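 Lung cancer cell lines, seeded in 1536-well plates, were treated the following day by pin tool with a single drug or with five library-drug doses (not always all listed) in √10 steps on top of a fixed anchor-drug dose. Cells were fixed and nuclei stained in one step after 5 days, and nuclei were counted. Relative viability is the nuclei count for treated wells divided by that for vehicle wells, reported as medians of duplicate plates.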

[2] = compound: CCN1C(=O)C2=CC(=C(N=C2N(C1=O)C3CC3)N)C(=O)N + CS(=O)(=O)N1CCN(Cc2cc3nc(-c4cccc5[nH]ncc45)nc(N4CCOCC4)c3s2)CC1 [Pictilisib] (partner 1 µM)
Summary of the method: as §1

[3] = compound: CCN1C(=O)C2=CC(=C(N=C2N(C1=O)C3CC3)N)C(=O)N + C[C@@H](Oc1cc(-c2cnn(C3CCNCC3)c2)cnc1N)c1c(Cl)ccc(F)c1Cl [Crizotinib] (partner 1 µM)
Summary of the method: as §1

[4] = compound: CCN1C(=O)C2=CC(=C(N=C2N(C1=O)C3CC3)N)C(=O)N + C[C@]1(O)C[C@@H](c2nc(-c3ccc4ccc(-c5ccccc5)nc4c3)c3c(N)nccn32)C1 [Linsitinib] (partner 1 µM)
Summary of the method: as §1

[5] = compound: CCN1C(=O)C2=CC(=C(N=C2N(C1=O)C3CC3)N)C(=O)N + N=C(N)NC(=N)NCCc1ccccc1 [Phenformin] (partner 250 µM)
Summary of the method: as §1

| Cell Line | relative viability ([1]; first compound 0.253 µM) | relative viability ([1]; first compound 0.8 µM) | relative viability ([1]; first compound 2.53 µM) | relative viability ([1]; first compound 8 µM) | relative viability ([2]; first compound 0.253 µM) | relative viability ([2]; first compound 0.8 µM) | relative viability ([2]; first compound 2.53 µM) | relative viability ([2]; first compound 8 µM) | relative viability ([3]; first compound 0.253 µM) | relative viability ([3]; first compound 0.8 µM) | relative viability ([3]; first compound 2.53 µM) | relative viability ([3]; first compound 8 µM) | relative viability ([4]; first compound 0.253 µM) | relative viability ([4]; first compound 0.8 µM) | relative viability ([4]; first compound 2.53 µM) | relative viability ([4]; first compound 8 µM) | relative viability ([5]; first compound 0.253 µM) | relative viability ([5]; first compound 0.8 µM) | relative viability ([5]; first compound 2.53 µM) | relative viability ([5]; first compound 8 µM) |
| --- | --- | --- | --- | --- | --- | --- | --- | --- | --- | --- | --- | --- | --- | --- | --- | --- | --- | --- | --- | --- |
| A-427 | 1.13 | 1.26 | 1.24 | 1.13 | 0.724 | 0.578 | 0.645 | 0.727 | 0.986 | 1.08 | 0.774 | 1.06 | 1.24 | 1.11 | 1.04 | 1.1 | 0.376 | 0.307 | 0.376 | 0.343 |
| LXF-289 | 0.693 | 0.73 | 0.661 | 0.784 | 0.831 | 0.85 | 0.819 | 0.775 | 0.834 | 0.852 | 0.759 | 0.84 | 0.968 | 0.96 | 0.833 | 0.958 | 0.519 | 0.552 | 0.519 | 0.538 |
| NCI-H838 | 0.262 | 0.334 | 0.214 | 0.336 | 0.468 | 0.41 | 0.437 | 0.503 | 0.868 | 0.817 | 0.74 | 0.717 | 1.06 | 0.895 | 0.974 | 0.99 | 0.607 | 0.589 | 0.551 | 0.545 |
| NCI-H1437 | 1.1 | 1.06 | 1.1 | 1.16 | 0.433 | 0.416 | 0.445 | 0.465 | 0.938 | 0.993 | 0.818 | 1.09 | 0.929 | 1.04 | 1.01 | 1.11 | 0.269 | 0.363 | 0.334 | 0.276 |
| SW 1573 | 0.191 | 0.377 | 0.303 | 0.427 | 0.51 | 0.519 | 0.464 | 0.551 | 0.855 | 0.744 | 0.696 | 0.772 | 0.817 | 0.729 | 0.797 | 0.781 | 0.398 | 0.472 | 0.276 | 0.364 |
| NCI-H1792 | 0.586 | 0.4 | 0.541 | 0.419 | 0.312 | 0.28 | 0.355 | 0.3 | 1.1 | 0.902 | 1.08 | 0.878 | 0.551 | 0.624 | 0.59 | 0.559 | 0.224 | 0.237 | 0.367 | 0.352 |
| HCC-44 | 0.934 | 0.905 | 1.17 | 1.04 | 0.599 | 0.6 | 0.564 | 0.641 | 0.844 | 0.826 | 0.772 | 0.851 | 0.693 | 0.634 | 0.69 | 0.641 | 0.296 | 0.18 | 0.277 | 0.185 |
| EPLC-272H | 0.253 | 0.227 | 0.465 | 0.445 | 0.296 | 0.288 | 0.389 | 0.333 | 0.997 | 0.998 | 0.906 | 0.988 | 1.18 | 1.28 | 1.37 | 1.36 | 0.322 | 0.32 | 0.357 | 0.32 |
| NCI-H358 | 0.2 | 0.377 | 0.423 | 0.379 | 0.4 | 0.343 | 0.284 | 0.424 | 0.642 | 0.551 | 0.525 | 0.774 | 0.718 | 0.852 | 0.682 | 0.808 | 0.355 | 0.351 | 0.388 | 0.298 |
| NCI-H647 | 0.16 | 0.129 | 0.18 | 0.14 | 0.424 | – | 0.432 | 0.462 | 0.869 | 0.906 | 0.948 | 1.26 | 1.11 | 0.995 | 1.08 | 1.09 | 0.418 | 0.519 | 0.428 | 0.637 |
| NCI-H322M | 0.724 | 0.934 | 0.886 | 1 | 0.452 | 0.504 | 0.486 | 0.488 | 0.814 | 0.872 | 0.887 | 0.943 | 0.89 | 0.9 | 0.865 | 0.914 | 0.822 | 0.736 | 0.75 | 0.868 |
| NCI-H1563 | 0.538 | 0.509 | 0.573 | 0.542 | 0.648 | 0.618 | 0.728 | 0.616 | 0.907 | 0.881 | 0.991 | 0.811 | 1.17 | 1.1 | 1.26 | 1.04 | 0.653 | 0.611 | 0.651 | 0.639 |
